Where a name gives a salt, the structure may show the parent alone.
What was measured:
Bile salt export pump = Bile salt export pump (Homo sapiens, UniProt O95342); test: Inhibition of human BSEP overexpressed in Sf9 cell membrane vesicles assessed as uptake of [3H]-taurocholate in presence of ATP measured after 15 to 20 mins by membrane vesicle transport assay; format: ADME, cell-based
[1] = biological target: ATP-binding cassette sub-family C member 3 (Homo sapiens, UniProt O15438); test: Inhibition of human MRP3 overexpressed in Sf9 insect cell membrane vesicles assessed as uptake of [3H]-estradiol-17beta-D-glucuronide in presence of ATP and GSH measured after 10 mins by membrane vesicle transport assay; format: ADME, cell-based
[2] = biological target: ATP-binding cassette sub-family C member 2 (Homo sapiens, UniProt Q92887); test: Inhibition of human MRP2 overexpressed in Sf9 cell membrane vesicles assessed as uptake of [3H]-estradiol-17beta-D-glucuronide in presence of ATP and GSH measured after 20 mins by membrane vesicle transport assay
[3] = biological target: T1, ATP-binding cassette sub-family C member 4 (Homo sapiens, UniProt O15439); test: Inhibition of human MRP4 overexpressed in Sf9 cell membrane vesicles assessed as uptake of [3H]-estradiol-17beta-D-glucuronide in presence of ATP and GSH measured after 20 mins by membrane vesicle transport assay; format: ADME, cell-based
T1 sequence (O15439 whole entry): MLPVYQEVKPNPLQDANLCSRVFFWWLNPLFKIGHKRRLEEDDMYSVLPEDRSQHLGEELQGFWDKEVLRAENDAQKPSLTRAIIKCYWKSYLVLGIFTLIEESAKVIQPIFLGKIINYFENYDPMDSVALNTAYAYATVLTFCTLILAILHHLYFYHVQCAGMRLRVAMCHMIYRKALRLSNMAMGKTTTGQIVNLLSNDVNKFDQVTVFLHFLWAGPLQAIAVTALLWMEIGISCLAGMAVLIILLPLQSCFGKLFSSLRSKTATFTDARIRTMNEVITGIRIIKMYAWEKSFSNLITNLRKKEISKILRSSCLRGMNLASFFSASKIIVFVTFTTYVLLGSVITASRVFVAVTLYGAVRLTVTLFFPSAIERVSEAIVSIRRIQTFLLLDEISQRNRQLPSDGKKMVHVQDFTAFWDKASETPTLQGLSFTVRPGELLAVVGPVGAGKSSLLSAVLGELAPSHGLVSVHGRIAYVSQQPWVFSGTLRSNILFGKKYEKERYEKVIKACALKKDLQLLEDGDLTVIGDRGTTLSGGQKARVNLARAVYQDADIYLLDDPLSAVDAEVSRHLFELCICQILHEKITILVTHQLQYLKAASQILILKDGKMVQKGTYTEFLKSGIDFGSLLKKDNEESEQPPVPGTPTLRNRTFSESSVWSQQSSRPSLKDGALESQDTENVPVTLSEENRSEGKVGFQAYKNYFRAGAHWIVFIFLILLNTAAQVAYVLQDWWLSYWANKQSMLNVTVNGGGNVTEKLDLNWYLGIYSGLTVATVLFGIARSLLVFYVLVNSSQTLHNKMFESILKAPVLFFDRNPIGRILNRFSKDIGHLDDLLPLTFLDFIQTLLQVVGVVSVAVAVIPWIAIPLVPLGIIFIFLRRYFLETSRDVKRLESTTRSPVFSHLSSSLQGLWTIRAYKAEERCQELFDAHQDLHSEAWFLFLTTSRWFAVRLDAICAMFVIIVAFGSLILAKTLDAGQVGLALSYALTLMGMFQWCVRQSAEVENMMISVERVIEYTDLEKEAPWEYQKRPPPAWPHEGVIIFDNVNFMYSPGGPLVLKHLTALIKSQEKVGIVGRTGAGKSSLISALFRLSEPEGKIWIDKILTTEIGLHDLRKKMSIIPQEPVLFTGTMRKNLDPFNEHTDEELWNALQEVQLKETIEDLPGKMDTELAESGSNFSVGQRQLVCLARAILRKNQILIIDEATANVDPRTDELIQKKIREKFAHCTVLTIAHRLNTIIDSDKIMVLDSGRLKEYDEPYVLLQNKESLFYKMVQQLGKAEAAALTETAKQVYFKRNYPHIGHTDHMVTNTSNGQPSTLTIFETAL

ATP-binding cassette sub-family C member 3, sequence (O15438 whole entry): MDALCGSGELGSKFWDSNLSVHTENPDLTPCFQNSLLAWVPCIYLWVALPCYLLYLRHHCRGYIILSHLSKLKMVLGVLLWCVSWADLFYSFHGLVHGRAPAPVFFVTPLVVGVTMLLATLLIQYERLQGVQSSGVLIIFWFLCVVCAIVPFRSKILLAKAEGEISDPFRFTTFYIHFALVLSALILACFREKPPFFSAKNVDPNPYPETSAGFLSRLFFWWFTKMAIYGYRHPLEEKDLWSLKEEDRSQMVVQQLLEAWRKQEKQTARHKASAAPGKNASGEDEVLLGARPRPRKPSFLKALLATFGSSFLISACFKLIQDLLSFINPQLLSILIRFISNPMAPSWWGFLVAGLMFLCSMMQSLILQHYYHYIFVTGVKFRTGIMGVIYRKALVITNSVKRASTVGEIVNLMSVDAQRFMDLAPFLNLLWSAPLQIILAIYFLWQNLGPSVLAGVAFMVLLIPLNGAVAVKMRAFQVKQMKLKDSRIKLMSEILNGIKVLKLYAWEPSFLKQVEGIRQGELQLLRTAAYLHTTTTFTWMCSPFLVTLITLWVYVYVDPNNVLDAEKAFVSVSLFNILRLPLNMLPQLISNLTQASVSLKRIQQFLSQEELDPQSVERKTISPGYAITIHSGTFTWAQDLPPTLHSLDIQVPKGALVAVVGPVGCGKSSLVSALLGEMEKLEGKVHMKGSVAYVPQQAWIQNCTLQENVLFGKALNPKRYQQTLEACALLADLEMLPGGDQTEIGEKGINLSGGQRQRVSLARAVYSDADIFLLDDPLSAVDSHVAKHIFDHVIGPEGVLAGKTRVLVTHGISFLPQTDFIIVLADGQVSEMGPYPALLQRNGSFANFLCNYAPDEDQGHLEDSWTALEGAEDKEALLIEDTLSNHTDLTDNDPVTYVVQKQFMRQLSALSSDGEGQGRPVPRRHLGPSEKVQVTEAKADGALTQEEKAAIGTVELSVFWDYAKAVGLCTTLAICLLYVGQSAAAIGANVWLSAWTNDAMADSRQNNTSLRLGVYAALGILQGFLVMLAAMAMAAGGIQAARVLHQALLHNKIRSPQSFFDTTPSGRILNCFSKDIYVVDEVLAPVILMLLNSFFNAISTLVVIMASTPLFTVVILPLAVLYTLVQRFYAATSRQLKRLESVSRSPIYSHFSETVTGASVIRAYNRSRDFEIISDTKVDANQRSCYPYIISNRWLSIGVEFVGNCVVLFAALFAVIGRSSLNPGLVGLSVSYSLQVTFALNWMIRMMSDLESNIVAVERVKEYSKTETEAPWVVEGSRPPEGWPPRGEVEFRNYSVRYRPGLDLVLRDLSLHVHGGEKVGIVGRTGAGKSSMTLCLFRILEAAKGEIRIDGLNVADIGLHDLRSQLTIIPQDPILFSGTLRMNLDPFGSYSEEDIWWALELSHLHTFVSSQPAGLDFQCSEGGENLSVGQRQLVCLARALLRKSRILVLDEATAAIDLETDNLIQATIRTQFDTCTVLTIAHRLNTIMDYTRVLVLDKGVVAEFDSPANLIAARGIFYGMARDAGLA
Bile salt export pump, sequence (O95342 whole entry): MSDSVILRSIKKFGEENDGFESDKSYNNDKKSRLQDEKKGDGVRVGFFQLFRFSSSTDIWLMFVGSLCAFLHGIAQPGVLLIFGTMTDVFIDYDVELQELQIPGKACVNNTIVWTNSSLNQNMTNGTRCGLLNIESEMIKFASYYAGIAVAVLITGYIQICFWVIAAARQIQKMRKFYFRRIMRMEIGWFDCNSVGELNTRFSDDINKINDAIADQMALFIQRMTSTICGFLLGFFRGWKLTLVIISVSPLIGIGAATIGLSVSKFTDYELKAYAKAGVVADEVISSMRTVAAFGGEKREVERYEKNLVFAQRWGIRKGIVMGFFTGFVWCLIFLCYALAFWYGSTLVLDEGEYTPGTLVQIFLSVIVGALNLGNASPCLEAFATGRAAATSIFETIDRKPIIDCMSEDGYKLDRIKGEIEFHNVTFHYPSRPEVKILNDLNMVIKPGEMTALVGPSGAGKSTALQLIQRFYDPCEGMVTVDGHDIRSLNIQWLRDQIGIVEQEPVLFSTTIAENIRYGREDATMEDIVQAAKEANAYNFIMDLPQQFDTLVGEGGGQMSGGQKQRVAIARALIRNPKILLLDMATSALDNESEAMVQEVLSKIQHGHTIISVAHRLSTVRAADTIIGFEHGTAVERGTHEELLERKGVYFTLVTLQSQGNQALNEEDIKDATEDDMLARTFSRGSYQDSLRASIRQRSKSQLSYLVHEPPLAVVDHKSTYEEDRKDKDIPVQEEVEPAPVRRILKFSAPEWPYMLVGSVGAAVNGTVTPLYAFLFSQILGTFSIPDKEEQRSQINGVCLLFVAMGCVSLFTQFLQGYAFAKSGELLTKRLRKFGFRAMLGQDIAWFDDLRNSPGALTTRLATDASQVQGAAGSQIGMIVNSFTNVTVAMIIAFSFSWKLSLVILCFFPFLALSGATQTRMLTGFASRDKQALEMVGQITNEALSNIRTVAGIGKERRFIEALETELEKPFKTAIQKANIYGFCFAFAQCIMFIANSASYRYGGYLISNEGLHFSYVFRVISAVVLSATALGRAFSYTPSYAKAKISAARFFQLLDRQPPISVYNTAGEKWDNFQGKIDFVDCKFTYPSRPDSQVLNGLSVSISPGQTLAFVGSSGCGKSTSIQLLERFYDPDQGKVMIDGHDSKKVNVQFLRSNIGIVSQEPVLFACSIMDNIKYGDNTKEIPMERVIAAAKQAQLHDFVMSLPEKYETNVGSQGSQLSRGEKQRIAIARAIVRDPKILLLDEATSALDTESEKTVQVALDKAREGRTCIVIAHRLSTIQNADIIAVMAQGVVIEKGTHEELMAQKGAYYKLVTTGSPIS
ATP-binding cassette sub-family C member 2, sequence (Q92887 whole entry): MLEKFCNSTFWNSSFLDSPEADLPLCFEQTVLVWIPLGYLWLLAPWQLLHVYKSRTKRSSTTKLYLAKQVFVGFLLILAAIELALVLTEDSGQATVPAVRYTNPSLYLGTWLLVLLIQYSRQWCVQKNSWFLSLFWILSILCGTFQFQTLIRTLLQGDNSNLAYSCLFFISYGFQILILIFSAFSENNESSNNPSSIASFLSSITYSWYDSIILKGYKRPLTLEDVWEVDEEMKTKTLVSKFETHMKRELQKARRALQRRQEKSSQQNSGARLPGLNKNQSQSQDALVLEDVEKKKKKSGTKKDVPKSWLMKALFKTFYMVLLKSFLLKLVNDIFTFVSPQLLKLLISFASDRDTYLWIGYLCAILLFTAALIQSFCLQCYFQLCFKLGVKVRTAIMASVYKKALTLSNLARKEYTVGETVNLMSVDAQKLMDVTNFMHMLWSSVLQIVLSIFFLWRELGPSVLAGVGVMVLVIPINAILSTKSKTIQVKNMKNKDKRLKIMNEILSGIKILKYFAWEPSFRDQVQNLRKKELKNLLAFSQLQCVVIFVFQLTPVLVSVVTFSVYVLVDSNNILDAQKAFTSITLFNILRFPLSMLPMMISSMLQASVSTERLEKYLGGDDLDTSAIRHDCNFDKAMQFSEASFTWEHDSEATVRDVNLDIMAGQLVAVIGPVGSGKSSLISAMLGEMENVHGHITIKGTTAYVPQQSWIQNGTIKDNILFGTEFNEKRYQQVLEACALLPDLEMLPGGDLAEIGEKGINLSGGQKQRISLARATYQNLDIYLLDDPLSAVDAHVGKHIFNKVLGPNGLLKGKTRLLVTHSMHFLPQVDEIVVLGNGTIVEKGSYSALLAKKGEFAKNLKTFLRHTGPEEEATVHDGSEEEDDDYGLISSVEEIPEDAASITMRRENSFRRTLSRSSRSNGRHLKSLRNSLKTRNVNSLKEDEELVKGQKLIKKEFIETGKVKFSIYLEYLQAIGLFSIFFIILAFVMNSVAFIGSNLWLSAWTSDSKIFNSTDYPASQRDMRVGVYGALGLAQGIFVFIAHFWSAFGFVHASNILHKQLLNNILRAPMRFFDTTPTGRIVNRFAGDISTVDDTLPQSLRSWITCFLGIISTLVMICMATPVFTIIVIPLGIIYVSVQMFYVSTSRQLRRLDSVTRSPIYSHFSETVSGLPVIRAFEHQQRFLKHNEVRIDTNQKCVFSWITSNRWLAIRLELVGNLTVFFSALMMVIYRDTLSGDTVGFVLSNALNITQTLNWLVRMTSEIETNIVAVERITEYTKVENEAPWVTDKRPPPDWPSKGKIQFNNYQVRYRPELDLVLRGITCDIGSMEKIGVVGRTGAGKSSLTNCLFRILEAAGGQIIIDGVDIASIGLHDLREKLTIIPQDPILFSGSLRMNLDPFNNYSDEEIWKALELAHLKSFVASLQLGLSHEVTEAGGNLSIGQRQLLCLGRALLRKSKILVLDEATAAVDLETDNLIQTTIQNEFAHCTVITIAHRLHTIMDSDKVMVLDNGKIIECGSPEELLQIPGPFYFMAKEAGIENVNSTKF

| Compound | IC50 (Bile salt export pump) | IC50 [1] | IC50 [2] | IC50 [3] |
| --- | --- | --- | --- | --- |
| CC(C)=CCC1C(=O)N(c2ccccc2)N(c2ccccc2)C1=O [FEPRAZONE] | 73.9 µM | > 133 µM | > 133 µM | > 133 µM |
| CC[C@H]1OC(=O)[C@H](C)[C@@H](O[C@H]2C[C@@](C)(OC)[C@@H](O)[C@H](C)O2)[C@H](C)[C@@H](O[C@@H]2O[C@H](C)C[C@H](N(C)C)[C@H]2O)[C@](C)(O)C[C@@H](C)CN(C)[C@H](C)[C@@H](O)[C@]1(C)O [AZITHROMYCIN] | > 133 µM | > 133 µM | > 133 µM | > 133 µM |
| CC(C)c1ccc2oc3nc(N)c(C(=O)O)cc3c(=O)c2c1 [AMLEXANOX] | 104 µM | > 133 µM | > 133 µM | 2.2 µM |
| NC(=O)CC[C@@H]1NC(=O)[C@H](Cc2ccccc2)NC(=O)[C@H](Cc2ccc(O)cc2)NC(=O)[C@@H](N)CSSC[C@@H](C(=O)N2CCC[C@H]2C(=O)N[C@@H](CCCN=C(N)N)C(=O)NCC(N)=O)NC(=O)[C@H](CC(N)=O)NC1=O [VASOPRESSIN] | > 133 µM | > 133 µM | > 133 µM | > 133 µM |
| CC[C@H]1OC(=O)[C@H](C)[C@@H](O[C@H]2C[C@@](C)(OC)[C@@H](O)[C@H](C)O2)[C@H](C)[C@@H](O[C@@H]2O[C@H](C)C[C@H](N(C)C)[C@H]2O)[C@](C)(OC)C[C@@H](C)C(=O)[C@H](C)[C@@H](O)[C@]1(C)O [CLARITHROMYCIN] | > 133 µM | > 133 µM | > 133 µM | > 133 µM |
| CC1Cc2ccccc2N1NC(=O)c1ccc(Cl)c(S(N)(=O)=O)c1 (configuration not stated) [INDAPAMIDE] | > 133 µM | > 133 µM | > 133 µM | > 133 µM |
| COc1cccc2c1C(=O)c1c(O)c3c(c(O)c1C2=O)C[C@@](O)(C(=O)CO)C[C@@H]3O[C@H]1C[C@H](N)[C@@H](O)[C@H](C)O1 [EPIRUBICIN HYDROCHLORIDE] | > 133 µM | > 133 µM | > 133 µM | > 133 µM |
| CC(C(=O)O)c1ccc2c(c1)[nH]c1ccc(Cl)cc12 (configuration not stated) [CARPROFEN] | > 133 µM | > 133 µM | > 133 µM | 3 µM |
| C=CCN1C[C@H](C(=O)N(CCCN(C)C)C(=O)NCC)C[C@@H]2c3cccc4[nH]cc(c34)C[C@H]21 [CABERGOLINE] | > 133 µM | > 133 µM | > 133 µM | > 133 µM |
| CCOC(=O)c1ncn2c1CN(C)C(=O)c1cc(F)ccc1-2 [FLUMAZENIL] | > 133 µM | > 133 µM | > 133 µM | > 133 µM |
| CC(C)C(=O)OCC(=O)[C@@]12O[C@H](C3CCCCC3)O[C@@H]1C[C@H]1[C@@H]3CCC4=CC(=O)C=C[C@]4(C)[C@H]3[C@@H](O)C[C@@]12C [CICLESONIDE] | > 133 µM | > 133 µM | > 133 µM | > 133 µM |
| NC(N)=Nc1nc(CSCCC(N)=NS(N)(=O)=O)cs1 [FAMOTIDINE] | > 133 µM | > 133 µM | > 133 µM | > 133 µM |
| NCC(CC(=O)O)c1ccc(Cl)cc1 (configuration not stated) [BACLOFEN] | > 133 µM | > 133 µM | > 133 µM | > 133 µM |
| COc1nc(N)nc2c1ncn2[C@@H]1O[C@H](CO)[C@@H](O)[C@@H]1O [NELARABINE] | > 133 µM | > 133 µM | > 133 µM | > 133 µM |
| COc1ccc2cc1Oc1cc3c(cc1OC)CC[N+](C)(C)[C@H]3Cc1ccc(cc1)Oc1c(OC)c(OC)cc3c1[C@@H](C2)[N+](C)(C)CC3 [METOCURINE] | > 133 µM | > 133 µM | > 133 µM | > 133 µM |
| CCn1cc(C(=O)O)c(=O)c2cc(F)c(N3CCN(C)CC3)cc21 [PEFLOXACIN] | > 133 µM | > 133 µM | > 133 µM | > 133 µM |
| O=C(O[C@@H]1C[C@@H]2C[C@H]3C[C@H](C1)N2CC3=O)c1c[nH]c2ccccc12 | > 133 µM | > 133 µM | > 133 µM | > 133 µM |
| CC1COc2c(N3CCN(C)CC3)c(F)cc3c(=O)c(C(=O)O)cn1c23 (configuration not stated) [OFLOXACIN] | > 133 µM | > 133 µM | > 133 µM | > 133 µM |

— ChEMBL document CHEMBL4028801, “A multifactorial approach to hepatobiliary transporter assessment enables improved therapeutic compound development” (Toxicol Sci, 2013)
